The source of these data is ChEMBL document CHEMBL5346923, “Novel pyridinium cationic pleuromutilin analogues overcoming bacterial multidrug resistance” (Eur J Med Chem, 2023).

Where only a bound is given, the exact number is not on record here.

Common to all, as to format: functional
One assay relates to Enterococcus. The assay is described as follows: Antibacterial activity against vancomycin-resistant Enterococcus ATCC 700221 assessed as inhibition of bacterial growth measured after 24 hrs by MH broth based assay.
In a further assay the test system is Bacillus subtilis. The experiment in a line: Antibacterial activity against Bacillus subtilis ATCC 6633 assessed as inhibition of bacterial growth measured after 24 hrs by MH broth based assay.
In assay [1] the test system is Staphylococcus aureus. The experiment in a line: Antibacterial activity against Staphylococcus aureus ATCC 29213 assessed as inhibition of bacterial growth measured after 24 hrs by MH broth based assay.
Assay [2] concerns Staphylococcus aureus. The experiment in a line: Antibacterial activity against methicillin-resistant Staphylococcus aureus ATCC 43300 assessed as inhibition of bacterial growth measured after 24 hrs by MH broth based assay.
The subject of the next assay is Streptococcus pneumoniae. The experiment in a line: Antibacterial activity against Streptococcus pneumoniae ATCC 49619 assessed as inhibition of bacterial growth measured after 24 hrs by MH broth based assay.
Assay [3] concerns Staphylococcus epidermidis. The assay is described as follows: Antibacterial activity against methicillin-resistant Staphylococcus epidermidis ATCC 51625 assessed as inhibition of bacterial growth measured after 24 hrs by MH broth based assay.
For the next assay, the system named is Klebsiella pneumoniae. The experiment in a line: Antibacterial activity against Klebsiella pneumonia CMCC (B) 46117 assessed as inhibition of bacterial growth measured after 24 hrs by MH broth based assay.
Assay [4] relates to Escherichia coli. The assay is described as follows: Antibacterial activity against Escherichia coli ATCC 25922 assessed as inhibition of bacterial growth measured after 24 hrs by MH broth based assay.
Another assay has as its system Proteus. The assay is described as follows: Antibacterial activity against Proteus CMCC (B) 49027 assessed as inhibition of bacterial growth measured after 24 hrs by MH broth based assay.
Assay [5] has as its system Escherichia coli. The assay is described as follows: Antibacterial activity against Escherichia coli MG1655 assessed as inhibition of bacterial growth measured after 24 hrs by MH broth based assay.
In assay [6] the test system is Escherichia coli. The experiment in a line: Antibacterial activity against Escherichia coli MG1655 harbouring acrB gene assessed as inhibition of bacterial growth measured after 24 hrs by MH broth based assay.

Turning to `C=C[C@]1(C)C[C@@H](OC(=O)CSc2cc[n+](CC(=O)N3CCCC3)cc2)[C@]2(C)[C@H](C)CC[C@]3(CCC(=O)[C@H]32)[C@@H](C)[C@@H]1O.[I-]`, the MIC in the assay on Enterococcus is 64 mg/L; with Bacillus subtilis, > 64 mg/L; with Staphylococcus aureus [1], 4 mg/L; with Staphylococcus aureus [2] it was 4 mg/L; in the assay on Streptococcus pneumoniae it was 1 mg/L; in [3], 2 mg/L. The MIC in the assay with Klebsiella pneumoniae is 64 mg/L; in the assay on Escherichia coli [4], 64 mg/L; in the assay on Proteus, > 64 mg/L; with Escherichia coli [5] it was 64 mg/L; in the assay on Escherichia coli [6], 4 mg/L.

`C=C[C@]1(C)C[C@@H](OC(=O)CSc2cc[n+](CC#CC)cc2)[C@]2(C)[C@H](C)CC[C@]3(CCC(=O)[C@H]32)[C@@H](C)[C@@H]1O.[I-]`: the minimum inhibitory concentration (MIC) in the assay with Enterococcus was 32 mg/L; in the assay on Bacillus subtilis, > 64 mg/L; in the assay on Staphylococcus aureus [1], 0.125 mg/L; in the assay with Staphylococcus aureus [2] it was 0.25 mg/L; in the assay on Streptococcus pneumoniae it was < 0.031 mg/L; in [3] it was 0.063 mg/L. Further, the MIC is 64 mg/L with Klebsiella pneumoniae; 64 mg/L with Escherichia coli [4]; > 64 mg/L in the assay on Proteus; 64 mg/L in the assay with Escherichia coli [5]; 1 mg/L in the assay with Escherichia coli [6].

Regarding `C#CCC[n+]1ccc(SCC(=O)O[C@@H]2C[C@@](C)(C=C)[C@@H](O)[C@H](C)[C@]34CCC(=O)[C@H]3[C@@]2(C)[C@H](C)CC4)cc1.[I-]`, the minimum inhibitory concentration (MIC) stood at 64 mg/L in the assay on Enterococcus; 64 mg/L in the assay on Bacillus subtilis; 0.5 mg/L in the assay on Staphylococcus aureus [1]; 0.5 mg/L in the assay on Staphylococcus aureus [2]; 0.125 mg/L in the assay with Streptococcus pneumoniae; 0.25 mg/L in assay [3]. For the same compound, the MIC in the assay with Klebsiella pneumoniae was 64 mg/L; with Escherichia coli [4] it was 64 mg/L; with Proteus, > 64 mg/L; in the assay with Escherichia coli [5], 64 mg/L; in the assay on Escherichia coli [6], 1 mg/L.

Regarding `C=C[C@]1(C)C[C@@H](OC(=O)CSc2cc[n+](Cc3ccc(C(=O)OC(C)(C)C)cc3)cc2)[C@]2(C)[C@H](C)CC[C@]3(CCC(=O)[C@H]32)[C@@H](C)[C@@H]1O.[I-]`, the MIC in the assay with Enterococcus stood at 64 mg/L; in the assay on Bacillus subtilis, 64 mg/L; with Staphylococcus aureus [1], 1 mg/L; with Staphylococcus aureus [2] it was 1 mg/L; in the assay with Streptococcus pneumoniae it was 0.25 mg/L; in assay [3], 0.5 mg/L. Further, the MIC in the assay on Klebsiella pneumoniae was 64 mg/L; with Escherichia coli [4], 64 mg/L; in the assay with Proteus, > 64 mg/L; with Escherichia coli [5] it was 64 mg/L; in the assay on Escherichia coli [6], 4 mg/L.

Take `C=C[C@]1(C)C[C@@H](OC(=O)CSc2cc[n+](CC(=O)O)cc2)[C@]2(C)[C@H](C)CC[C@]3(CCC(=O)[C@H]32)[C@@H](C)[C@@H]1O.[I-]`: the MIC with Enterococcus is 64 mg/L; in the assay on Bacillus subtilis it was > 64 mg/L; in the assay on Staphylococcus aureus [1] it was 8 mg/L; with Staphylococcus aureus [2], 4 mg/L; with Streptococcus pneumoniae it was 2 mg/L; in assay [3], 2 mg/L. Also, the MIC is > 64 mg/L in the assay on Klebsiella pneumoniae; > 64 mg/L in the assay on Escherichia coli [4]; > 64 mg/L in the assay on Proteus; > 64 mg/L in the assay on Escherichia coli [5]; 32 mg/L in the assay with Escherichia coli [6].

Consider `C=C[C@]1(C)C[C@@H](OC(=O)CSc2cc[n+](CCCCCC(=O)O)cc2)[C@]2(C)[C@H](C)CC[C@]3(CCC(=O)[C@H]32)[C@@H](C)[C@@H]1O.[I-]`, for which the minimum inhibitory concentration (MIC) with Enterococcus was 64 mg/L; in the assay on Bacillus subtilis, > 64 mg/L; in the assay on Staphylococcus aureus [1], 8 mg/L; in the assay on Staphylococcus aureus [2], 16 mg/L; with Streptococcus pneumoniae it was 4 mg/L; in assay [3] it was 8 mg/L. Also, the minimum inhibitory concentration (MIC) in the assay on Klebsiella pneumoniae is > 64 mg/L; in the assay on Escherichia coli [4], > 64 mg/L; with Proteus it was > 64 mg/L; in the assay on Escherichia coli [5], 64 mg/L; in the assay with Escherichia coli [6] it was 32 mg/L.

For `C=C[C@]1(C)C[C@@H](OC(=O)CSc2cc[n+](CC(=O)NCc3ccccc3C)cc2)[C@]2(C)[C@H](C)CC[C@]3(CCC(=O)[C@H]32)[C@@H](C)[C@@H]1O.[I-]`, the MIC in the assay on Enterococcus was 64 mg/L; with Bacillus subtilis, 64 mg/L; in the assay with Staphylococcus aureus [1], 0.5 mg/L; in the assay with Staphylococcus aureus [2] it was 0.5 mg/L; in the assay with Streptococcus pneumoniae, 0.5 mg/L; in [3] it was 1 mg/L. The minimum inhibitory concentration (MIC) with Klebsiella pneumoniae turned out to be 8 mg/L; in the assay with Escherichia coli [4] it was 64 mg/L; in the assay with Proteus it was 64 mg/L; with Escherichia coli [5] it was 32 mg/L; with Escherichia coli [6], 1 mg/L.

For `C=C[C@]1(C)C[C@@H](OC(=O)CSc2cc[n+](CCCCCCC(=O)O)cc2)[C@]2(C)[C@H](C)CC[C@]3(CCC(=O)[C@H]32)[C@@H](C)[C@@H]1O.[I-]`, the MIC is 64 mg/L in the assay on Enterococcus; 64 mg/L in the assay with Bacillus subtilis; 0.5 mg/L in the assay with Staphylococcus aureus [1]; 0.5 mg/L in the assay with Staphylococcus aureus [2]; 0.5 mg/L in the assay on Streptococcus pneumoniae; 2 mg/L in [3]. Also, the MIC was 64 mg/L in the assay with Klebsiella pneumoniae; 64 mg/L with Escherichia coli [4]; 64 mg/L in the assay with Proteus; 64 mg/L in the assay on Escherichia coli [5]; 32 mg/L with Escherichia coli [6].

On to `C=C[C@]1(C)C[C@@H](OC(=O)CSc2cc[n+](CCCO)cc2)[C@]2(C)[C@H](C)CC[C@]3(CCC(=O)[C@H]32)[C@@H](C)[C@@H]1O.[I-]`, for which the minimal inhibitory concentration (MIC) with Enterococcus stood at 64 mg/L; with Bacillus subtilis, 64 mg/L; in the assay on Staphylococcus aureus [1] it was 1 mg/L; with Staphylococcus aureus [2], 1 mg/L; in the assay with Streptococcus pneumoniae, 0.25 mg/L; in assay [3] it was 0.5 mg/L. Besides, the MIC with Klebsiella pneumoniae was 32 mg/L; with Escherichia coli [4], 64 mg/L; with Proteus, > 64 mg/L; in the assay with Escherichia coli [5] it was 64 mg/L; in the assay on Escherichia coli [6], 0.5 mg/L.

Turning to `C=C[C@]1(C)C[C@@H](OC(=O)CSc2cc[n+](CCO)cc2)[C@]2(C)[C@H](C)CC[C@]3(CCC(=O)[C@H]32)[C@@H](C)[C@@H]1O.[I-]`, the MIC with Enterococcus was found to be 32 mg/L; in the assay on Bacillus subtilis, 64 mg/L; in the assay on Staphylococcus aureus [1], 1 mg/L; with Staphylococcus aureus [2], 1 mg/L; in the assay on Streptococcus pneumoniae, 0.5 mg/L; in [3], 1 mg/L. The MIC with Klebsiella pneumoniae was 32 mg/L; with Escherichia coli [4], 64 mg/L; with Proteus it was 64 mg/L; in the assay on Escherichia coli [5], 64 mg/L; in the assay on Escherichia coli [6], 0.5 mg/L.

Take `C=C[C@]1(C)C[C@@H](OC(=O)CSc2cc[n+](CCCC)cc2)[C@]2(C)[C@H](C)CC[C@]3(CCC(=O)[C@H]32)[C@@H](C)[C@@H]1O.[Br-]`: the MIC in the assay on Enterococcus amounted to 16 mg/L; in the assay with Bacillus subtilis it was 64 mg/L; with Staphylococcus aureus [1], 0.25 mg/L; in the assay on Staphylococcus aureus [2], 0.25 mg/L; in the assay on Streptococcus pneumoniae, 0.063 mg/L; in assay [3] it was 0.125 mg/L. The MIC is 32 mg/L in the assay with Klebsiella pneumoniae; 64 mg/L in the assay on Escherichia coli [4]; > 64 mg/L with Proteus; 64 mg/L in the assay on Escherichia coli [5]; 1 mg/L with Escherichia coli [6].
